# US20080255121A1, “Combination Drug for Treating Autoimmune Disease” (DAINIPPON SUMITOMO PHARMA CO., LTD., priority 2004, published 2008)
# Where “and” joins values, the source holds several entries; their conditions need not be identical. Identical values can stand only once.
# How the values were obtained:
# [1] = system: adjuvant-induced arthritis rats; assay: Adjuvant-induced arthritis, therapeutic and prophylactic model; format: in vivo, rat
# Method: The adjuvant-induced arthritis model is a representative chronic inflammation model caused in rats, and it is widely used for pharmacological evaluation of antiinflammatory drugs and antirheumatic drugs. Accordingly, effects of Compound (I) and Compound (II) were examined in both therapeutic and prophylactic model. In the therapeutic model, the difference of the volume of a hind leg before and after the dosed period was calculated to examine edema suppression effect by the drug administration and the change of edema volume was examined. In the prophylactic model, the volume of a hind paw was measured over time during the dosed period and the effect of the drug for a long term period was examined. Although the hind paw volume or the edema volume was used as the index of efficacy evaluation, the edema volume means the increment from the normal volume of the hind paw which was not sensitized with the adjuvant, and therefore, the both indices can be used as approximately the same meaning.
# A liquid paraffin suspension (1 mg/200 μl) of Mycobacterium butyricum (adjuvant) was subcutaneously injected at the tarsal part of the right hind paw of SD or Lewis rats (both male, six-week old) to cause arthritis. In the therapeutic model, 0.5% methylcellulose suspension of Compound (I) or Compound (II) which was prepared so that the dose was 1 ml per 100 g body weight was orally administered once a day for consecutive five days from the 17th day after the injection of the adjuvant. An indomethacin suspension prepared in the similar way was administered as the positive control. The volume of the hind paws was measured respectively for the right and the left by water replacement method just before the administration and in five hours after the last administration and the difference in the values just before the administration and in five hours after the last administration was calculated and assumed as the change in the edema volume. In the prophylatic model, the compounds were administered once a day for consecutive 21 days after the day when the adjuvant was injected. The volume of the right and left hind paws was measured by water replacement method every other day. In the prophylactic model of Compound (II), a suspension of D-penicillamine, an antirheumatic drug, was administered in the same way as a control.
# [2] = system: collagen-induced arthritis mouse; assay: Collagen-induced arthritis in mice; format: in vivo
# Method: Efficacy evaluation of Compound (I) was performed using a collagen-induced arthritis in mice as an animal model of rheumatoid arthritis. The collagen-induced arthritis was caused following an ordinary method. That is, 0.1 ml of emulsion was injected to a mouse (DBA/1J, male, Charles River Laboratories Japan) at the base of the tail under etherization as primary immunization. The emulsion was prepared by mixing the same volume of a bovine type II collagen solution (2 mg/ml, Collagen Kenshukai) and Freund Complete Adjuvant (Difco). 0.1 ml of emulsion of the same composition was injected at the base of the tail as booster immunization after three weeks and arthritis was caused. The severity of arthritis was indicated as a score according to the following criteria.
# 1: Swelling at two or less joints
# 2: Swelling at three or more joints/Slight redding and edema at limbs
# 3: Swelling at three or more joints/Moderate redding and edema at limbs
# 4: Severe redding and edema at limbs/Ankylosis
# Evaluation is performed for each limb with 0 to 4 points and therefore the possible maximum score in one individual is 16.
# Compound (I) and prednisolone (positive control) were suspended in 0.5% methylcellulose solution and 0.1 ml per 10 g mouse weight was orally administered. In a control group, only 0.5% methylcellulose solution was orally administered. The administration was started with the primary immunization and carried out once a day for consecutive 35 days.
# [3] = system: experimental allergic encephalomyelitis mice; assay: Experimental allergic encephalomyelitis, Compound (I); format: in vivo
# Source text: The severity of the condition was indicated as a score (disease score) according to the following criteria.
# 0.5: Slight paralysis of tail
# 2: Light paralysis of hind paw
# 3: Medium to intense paralysis of hind paw or light forelimb paralysis
# 4: Complete paralysis of hind paw or medium to intense paralysis of forelimb
# 5: Paralysis of four limbs or toward death period
# In the prednisolone administered group as a positive control, prednisolone was suspended in 0.5% methylcellulose solution to prepare a liquid of 0.3 mg/ml for administration and 0.1 ml per 10 g mouse weight was orally administered. In a control group, only 0.5% methylcellulose solution was […] administered. The administration was started on the sensitization day and carried out once a day for consecutive 40 days.
# [4] = system: adjuvant-induced arthritis rats; assay: Combination effect on adjuvant-induced arthritis (Example 18); format: in vivo, rat; conditions: only Compound (I) 10 mg/kg oral 12 days from day 10
# Method: Combination effect with Compound (I) and DMARDs (methotrexate) was examined in the same way as in Example 17.
# Administration of a DMARD (methotrexate (0.060 mg/kg or 0.045 mg/kg; 0.5% methylcellulose suspension)) to the rat in which adjuvant-induced arthritis was caused in the same way as in Example 17 was started on the day when the adjuvant was injected and continued once a day for consecutive 21 days. Compound (I) (10 mg/kg) was orally administered singly or in combination once a day for consecutive 12 days from the 10 days after the sensitization. The volume of the left hind paw was measured by water replacement method every other day.
# [5] = system: adjuvant-induced arthritis rats; assay: Combination effect on adjuvant-induced arthritis (Example 19); format: in vivo, rat
# Method: Combination effect for rat adjuvant-induced arthritis was examined in the same manner as in Example 17.
# The volume of the left hind paw was measured by water replacement method just before the administration and after the last administration, and AUC (the area under the curve formed by plotting the difference of the value at the time of grouping from the value of each time point during the administration period against the time) of the increased volume of the left hind paw was determined. Joint destruction of the right hind paw (injected paw) and the left hind paw (non-injection paw) can be measured by X-ray and this can be also used as the index to evaluate the combination effect.
# adjuvant arthritis rats = conditions: reported in Patent Documents 3, 4 and Non-Patent Documents 3 to 5; cited from earlier work
# [6] = system: collagen-induced arthritis rats; conditions: reported in Patent Document 3 and Non-Patent Documents 3 to 5; cited from earlier work
# [7] = 5 mg/kg oral once a day 35 days
# [8] = Dose 20 mg/kg oral once a day 40 days
# [9] = Dose 40 mg/kg oral once a day 40 days
smiles,measurement,setting,value
"C[C@@H](c1ccc(-c2ccccc2)c(F)c1)c1cc(/N=C(/N)N2CCOCC2)on1 [Compound (I), 3-[(1S)-1-(2-fluorobiphenyl-4-yl)ethyl]-5-{[amino(morpholin-4-yl)methylene]amino}isoxazole]","p, left hind paw volume (AUC value), Williams's multiple comparison","[1]; prophylactic model, 20 mg/kg",< 0.05
same,hind paw volume / edema volume,"[1]; prophylactic model, oral once a day for 21 days, Compound (I) 2.5 to 80 mg/kg, Compound (II) 50 mg/kg, FIGS. 8 and 9",remarkable edema suppressing effect
same,change of edema volume of hind paw,"[1]; therapeutic model, oral once a day for five days from 17th day, Compound (I) 2.5 to 80 mg/kg, Compound (II) 10 to 50 mg/kg, FIGS. 6 and 7",remarkable edema suppressing effect
same,"p, arthritis onset ratio, Fischer's direct probability method with Bonferroni's correction",[2]; [7],< 0.05
same,"p, arthritis score, Shirley-Williams multiple comparison test",[2]; [7],< 0.05
same,onset of arthritis,"[2]; 5 to 80 mg/kg oral once a day 35 days, FIG. 10",dose-dependently suppressed
same,degree of arthritis,"[2]; 5 to 80 mg/kg oral once a day 35 days, FIG. 11",slight
same,disease score,"[3]; 20, 40, 80 mg/kg oral once a day 40 days, FIG. 13",suppressed the disease score at any dose
same,Death Rate,[3]; [8],0/10
same,Onset Rate,[3]; [8],8/10
same,Death Rate,[3]; [9],0/10
same,Onset Rate,[3]; [9],7/10
same,Onset Rate,[3]; Dose 80 mg/kg oral once a day 40 days,8/10
same,Death Rate,"[3]; Dose 80 mg/kg oral once a day 40 days, 80 mg/kg",1 of 10 and 1/10
same,onset ratio and volume of left hind paw,[4],very little effect
same,increased volume and onset ratio of left hind paw,[5]; only Compound (I) 20 mg/kg oral once a day 17 days,edema suppressing effect
same,increased volume and onset ratio of left hind paw,[5]; only Compound (I) 40 mg/kg and 80 mg/kg oral once a day 17 days,onset suppressing effect and edema suppressing effect
same,effects on adjuvant arthritis rats,adjuvant arthritis rats,anti-arthritis effects
same,effects on collagen-induced arthritis rats,[6],anti-arthritis effects
